Laboratory results from ChEMBL document CHEMBL4145553, “Design, synthesis, and biological evaluation of novel amide and hydrazide based thioether analogs targeting Histone deacteylase (HDAC) enzymes” (Eur J Med Chem, 2018).
The source made the active and inactive calls. The calls are words filed in the database; no cut-off is given here.

Legend:
CAKI-1 [1] = test: Growth inhibition of human Caki1 cells assessed as cell growth at 10^-6 M incubated for 48 hrs by sulforhodamine B assay relative to control; format: functional; details: CAKI-1, 48 h, read-out: Activity
Malme-3M [2] = test: Growth inhibition of human MALME-3M cells assessed as cell growth at 10^-7 M incubated for 48 hrs by sulforhodamine B assay relative to control; format: functional; details: read-out: Activity
786-0 = test: Growth inhibition of human 786-0 cells assessed as cell growth at 10^-5 M incubated for 48 hrs by sulforhodamine B assay relative to control; format: functional; details: 786-0, 48 h, read-out: Activity
NCI-H226 = test: Growth inhibition of human NCI-H226 cells incubated for 48 hrs by sulforhodamine B assay; format: functional; details: NCI-H226, 48 h
SR [3] = test: Growth inhibition of human SR cells assessed as cell growth at 10^-4 M incubated for 48 hrs by sulforhodamine B assay relative to control; format: functional; details: read-out: Activity
HT-29 = test: Growth inhibition of human HT-29 cells assessed as cell growth at 10^-7 M incubated for 48 hrs by sulforhodamine B assay relative to control; format: functional; details: HT-29, 48 h, read-out: Activity
MDA-MB-435 [4] = test: Induction of apoptosis in human MDA-MB-435 cells assessed as late apoptotic cells by propidium iodide/Annexin V staining based flow cytometry (reference value: 0.22%); format: functional
CAKI-1 [5] = test: Growth inhibition of human Caki1 cells incubated for 48 hrs by sulforhodamine B assay; format: functional; details: CAKI-1, 48 h
HL-60 [6] = test: Induction of apoptosis in human HL60 cells assessed as increase in caspase-3 expression by qRT-PCR method; format: functional, cell-based
LOX IMVI = test: Growth inhibition of human LOXIMVI cells assessed as cell growth at 10^-7 M incubated for 48 hrs by sulforhodamine B assay relative to control; format: functional; details: read-out: Activity
OVCAR-5 = test: Growth inhibition of human OVCAR5 cells incubated for 48 hrs by sulforhodamine B assay; format: functional; details: OVCAR-5, 48 h
RXF 393 = test: Growth inhibition of human RXF393 cells incubated for 48 hrs by sulforhodamine B assay; format: functional; details: RXF 393, 48 h
SK-MEL-28 = test: Growth inhibition of human SK-MEL-28 cells assessed as cell growth at 10^-4 M incubated for 48 hrs by sulforhodamine B assay relative to control; format: functional; details: SK-MEL-28, 48 h, read-out: Activity
SNB-75 = test: Growth inhibition of human SNB75 cells incubated for 48 hrs by sulforhodamine B assay; format: functional; details: SNB-75, 48 h
SR [7] = test: Growth inhibition of human SR cells assessed as cell growth at 10^-6 M incubated for 48 hrs by sulforhodamine B assay relative to control; format: functional; details: read-out: Activity
NCI-H23 = test: Growth inhibition of human NCI-H23 cells assessed as cell growth at 10^-5 M incubated for 48 hrs by sulforhodamine B assay relative to control; format: functional; details: NCI-H23, 48 h, read-out: Activity
SF-539 = test: Growth inhibition of human SF539 cells assessed as cell growth at 10^-4 M incubated for 48 hrs by sulforhodamine B assay relative to control; format: functional; details: SF-539, 48 h, read-out: Activity
HL-60 [8] = test: Downregulation of HDAC1 mRNA expression in human HL60 cells by qRT-PCR method; format: functional, cell-based
TK-10 = test: Growth inhibition of human TK10 cells assessed as cell growth at 10^-6 M incubated for 48 hrs by sulforhodamine B assay relative to control; format: functional; details: TK-10, 48 h, read-out: Activity
HL-60 [9] = test: Downregulation of HDAC3 mRNA expression in human HL60 cells by qRT-PCR method; format: functional, cell-based
HL-60(TB) = test: Growth inhibition of human HL-60(TB) cells assessed as cell growth at 10^-6 M incubated for 48 hrs by sulforhodamine B assay relative to control; format: functional; details: HL-60, 48 h, read-out: Activity
MDA-MB-435 [10] = test: Antiproliferative activity against human MDA-MB-435 cells after 24 hrs by MTT assay; format: functional
SW-620 = test: Growth inhibition of human SW620 cells incubated for 48 hrs by sulforhodamine B assay; format: functional; details: SW-620, 48 h
CAKI-1 [11] = test: Growth inhibition of human Caki1 cells assessed as cell growth at 10^-8 M incubated for 48 hrs by sulforhodamine B assay relative to control; format: functional; details: CAKI-1, 48 h, read-out: Activity
HOP-62 = test: Growth inhibition of human HOP62 cells assessed as cell growth at 10^-6 M incubated for 48 hrs by sulforhodamine B assay relative to control; format: functional; details: HOP-62, 48 h, read-out: Activity
OVCAR-3 = test: Growth inhibition of human OVCAR3 cells assessed as cell growth at 10^-7 M incubated for 48 hrs by sulforhodamine B assay relative to control; format: functional; details: OVCAR-3, 48 h, read-out: Activity
COLO 205 = test: Growth inhibition of human COLO205 cells assessed as cell growth at 10^-6 M incubated for 48 hrs by sulforhodamine B assay relative to control; format: functional; details: COLO 205, 48 h, read-out: Activity
K562 = test: Growth inhibition of human K562 cells assessed as cell growth at 10^-4 M incubated for 48 hrs by sulforhodamine B assay relative to control; format: functional; details: K562, 48 h, read-out: Activity
KM12 = test: Growth inhibition of human KM12 cells assessed as cell growth at 10^-7 M incubated for 48 hrs by sulforhodamine B assay relative to control; format: functional; details: KM12, 48 h, read-out: Activity
Malme-3M [12] = test: Growth inhibition of human MALME-3M cells incubated for 48 hrs by sulforhodamine B assay; format: functional
[13] = read-out: LC50 (the source's name)
[14] = read-out: pLC50 (the source's name) (converted)

## CCS/C(Nc1ccccc1)=C(\C#N)C(=O)Nc1ccc(OC)cc1
CAKI-1 [1]
  growth at 1 µM: 73%
Malme-3M [2]
  growth at 0.1 µM: 92%
786-0
  growth at 10 µM: 30%
NCI-H226; read-out: GI50
  GI50: 5.45 µM
NCI-H226; [13]
  CC50: > 100 µM
NCI-H226; read-out: TGI
  TGI: 50.7 µM
NCI-H226; read-out: pGI50 (converted)
  GI50: 5.5 µM
NCI-H226; [14]
  CC50: > 100 µM
NCI-H226; read-out: pTGI (converted)
  TGI: 50.1 µM
SR [3]
  growth at 100 µM: 16%
HT-29
  growth at 0.1 µM: 105%
MDA-MB-435 [4]
  Activity: 6.38%
CAKI-1 [5]; read-out: GI50
  GI50: 3.39 µM
CAKI-1 [5]; [13]
  CC50: > 100 µM
CAKI-1 [5]; read-out: TGI
  TGI: > 100 µM
CAKI-1 [5]; read-out: pGI50 (converted)
  GI50: 3.39 µM
CAKI-1 [5]; [14]
  CC50: > 100 µM
CAKI-1 [5]; read-out: pTGI
  TGI: > 100 µM
HL-60 [6]
  Activity: Active
LOX IMVI
  growth at 0.1 µM: 96%
OVCAR-5; read-out: GI50
  GI50: 5.52 µM
OVCAR-5; [13]
  CC50: > 100 µM
OVCAR-5; read-out: TGI
  TGI: > 100 µM
OVCAR-5; read-out: pGI50 (converted)
  GI50: 5.5 µM
OVCAR-5; [14]
  CC50: > 100 µM
OVCAR-5; read-out: pTGI
  TGI: > 100 µM
RXF 393; read-out: GI50
  GI50: 2.24 µM
RXF 393; [13]
  CC50: > 100 µM
RXF 393; read-out: TGI
  TGI: 7.86 µM
RXF 393; read-out: pGI50 (converted)
  GI50: 2.24 µM
RXF 393; [14]
  CC50: > 100 µM
RXF 393; read-out: pTGI (converted)
  TGI: 7.94 µM
SK-MEL-28
  growth at 100 µM: 37%
SNB-75; read-out: GI50
  GI50: 2.13 µM
SNB-75; [13]
  CC50: > 100 µM
SNB-75; read-out: TGI
  TGI: 7.21 µM
SNB-75; read-out: pGI50 (converted)
  GI50: 2.14 µM
SNB-75; [14]
  CC50: > 100 µM
SNB-75; read-out: pTGI (converted)
  TGI: 7.24 µM
SR [7]
  growth at 1 µM: 57%
NCI-H23
  growth at 10 µM: 34%
SF-539
  growth at 100 µM: -54%
HL-60 [8]
  Activity: Active
TK-10
  growth at 1 µM: 97%
HL-60 [9]
  Activity: Active
HL-60(TB)
  growth at 1 µM: 86%
MDA-MB-435 [10]
  Activity: Dose-dependent effect
MDA-MB-435 [10]; Homo sapiens, MDA-MB-435, 24 h
  GI50: 0.37 µM
SW-620; read-out: GI50
  GI50: 2.55 µM
SW-620; [13]
  CC50: > 100 µM
SW-620; read-out: TGI
  TGI: > 100 µM
SW-620; read-out: pGI50 (converted)
  GI50: 2.57 µM
SW-620; [14]
  CC50: > 100 µM
SW-620; read-out: pTGI
  TGI: > 100 µM
CAKI-1 [11]
  growth at 0.01 µM: 90%
HOP-62
  growth at 1 µM: 78%
OVCAR-3
  growth at 0.1 µM: 97%
COLO 205
  growth at 1 µM: 96%
K562
  growth at 100 µM: 10%
KM12
  growth at 0.1 µM: 98%
Malme-3M [12]; read-out: GI50
  GI50: 47.3 µM
Malme-3M [12]; [13]
  CC50: > 100 µM
Malme-3M [12]; read-out: TGI
  TGI: > 100 µM
Malme-3M [12]; read-out: pGI50 (converted)
  GI50: 46.8 µM
Malme-3M [12]; [14]
  CC50: > 100 µM
Malme-3M [12]; read-out: pTGI
  TGI: > 100 µM
